“Also recorded” adds a separate entry of the source.
How the values were obtained:
calf thymus DNA = experiment: PicoGreen DNA-binding assay; settings: TE buffer, different material:DNA mass ratios, unbound PicoGreen-labeled DNA
Method: The fluorescence intensity of the unbound PicoGreen®-DNA complex at 520 nm was measured with a multiwell plate reader via excitation at 490 nm.
Inflammatory circulating cfDNA released by PTT-damaged host cells might cause a severe inflammatory response, which may be mitigated by the scavenging of cfDNA. Therefore, to interrogate the cfDNA scavenging ability of the various nanoparticles, the inventors investigated the calf thymus DNA binding affinity of the nanoparticles in Tris-EDTA (TE) buffer with and without 10% FBS by measuring unbound PicoGreen®-labeled DNA (FIGS. 5D and 5E).

TNF-α = TNF-α production by activated RAW264.7 macrophages; assay type: cell-based, murine; settings: 24 h, 50 and 100 μg/ml
Source text: (§1) TLRs recognize a variety of PAMPs and DAMPs that induce the secretion of several proinflammatory cytokines. Inhibiting TLR activation and blocking DAMP-TLR interactions is a promising strategy for alleviating PTT-induced inflammation and reducing tumor regeneration and metastasis.

HEK-Blue hTLR9 cells = experiment: Agonist-induced TLR activation, HEK-Blue hTLR9 SEAP reporter cells; assay type: cell-based, human; settings: dose-dependent, presence or absence of FBS, 24 hours
Method: (§2) HEK-Blue hTLR3, hTLR8, and hTLR9 cells were obtained by co-transfecting the hTLR gene and an optimized secreted embryonic alkaline phosphatase (SEAP) reporter gene into HEK293 cells. HEK-Blue hTLR cells were cultured and maintained in DMEM with 10% FBS and 1% penicillin-streptomycin. […] After 24 hours, the supernatants were collected and mixed with Quanti-Blue™. TLR activation associated with SEAP activity was determined with a multiwell plate reader by measuring the OD at 620 nm. The cell densities (in a 96 well plate) used were 8×10^4 cells/well for HEK-Blue hTLR9 cells, 5×10^4 cells/well for HEK-Blue hTLR3 cells, and 4×10^4 cells/well for HEK-Blue hTLR8 cells.
(§3) We further studied nanoparticle-mediated inhibition of proinflammatory molecules-induced TLR activation by using HEK-Blue human TLR (hTLR) cells.
(§4) HEK-Blue hTLR3, hTLR8 and hTLR9 were obtained by co-transfecting the hTLR gene and an optimized secreted embryonic alkaline phosphatase (SEAP) reporter gene into HEK293 cells. HEK-Blue hTLR cells were cultured and maintained in DMEM with 10% FBS and 1% penicillin-streptomycin. […] TLR activation associated with SEAP activity was determined with a multiwell plate reader by measuring the OD at 620 nm.

COX-2 mRNA = COX-2 mRNA expression (RT-qPCR) in activated RAW264.7 cells; assay type: cell-based, murine; settings: 24 h
Source text: as §1

HEK-Blue hTLR4 cells = experiment: Agonist-induced TLR activation, HEK-Blue hTLR4 reporter cells; assay type: cell-based, human; settings: dose-dependent, presence or absence of FBS, 24 hours
Source text: as §3

4T1 tumor = experiment: 4T1 metastasis tumor model, treatment with or without photothermal therapy; assay type: in vivo, Balb/c mice
HEK-Blue hTLR3 cells = experiment: Agonist-induced TLR activation, HEK-Blue hTLR3 SEAP reporter cells; assay type: cell-based, human; settings: dose-dependent, presence or absence of FBS, 24 hours
Method: as §2, §3, §4

[1] = without laser, intravenous three times per week

SMILES	DNA binding affinity (calf thymus DNA)	TNF-α production (TNF-α; CpG-activated RAW264.7 cells)	TNF-α production (TNF-α; LPS-activated RAW264.7 cells)	CpG-induced activation of HEK-Blue hTLR9 cells (HEK-Blue hTLR9 cells)	COX-2 mRNA expression (COX-2 mRNA; CpG-activated RAW264.7 cells)	COX-2 mRNA expression (COX-2 mRNA; LPS-activated RAW264.7 cells)	LPS-induced activation of HEK-Blue hTLR4 cells (HEK-Blue hTLR4 cells)	survival rates of mice (4T1 tumor; after PTT)	tumor recurrence and metastasis (4T1 tumor; after laser (PTT))	body weight of the mice (4T1 tumor; after laser (PTT), intravenous three times per week)	cytokine levels (IL-6, TNF-α and IL-1 beta) in mouse serum, ELISA (4T1 tumor; after laser (PTT), versus PBS and laser groups)	body weight of the mice (4T1 tumor; [1])	size of the tumors / tumor suppression (4T1 tumor; [1])	poly (I:C)-induced activation of HEK-Blue hTLR3 cells (HEK-Blue hTLR3 cells)
COc1cc(/C=C/C(=O)CC(=O)/C=C/c2ccc(O)c(OC)c2)ccc1O [curcumin]	negligible DNA binding ability	slightly reduced	only slightly reduced	negligible inhibitory effect	alleviated the generation of COX-2 mRNA in CpG-induced RAW264.7 cells to some extent	no obvious inhibitory effect	negligible inhibitory effect	greatly improved	inhibited tumor recurrence and metastasis	increased body weight	clearly lower	did not show obvious effects	did not show obvious effects; also recorded: small effect	negligible inhibitory effect
O=C(OC[C@H]1O[C@@H](OC(=O)c2cc(O)c(O)c(OC(=O)c3cc(O)c(O)c(O)c3)c2)[C@H](OC(=O)c2cc(O)c(O)c(OC(=O)c3cc(O)c(O)c(O)c3)c2)[C@@H](OC(=O)c2cc(O)c(O)c(OC(=O)c3cc(O)c(O)c(O)c3)c2)[C@@H]1OC(=O)c1cc(O)c(O)c(OC(=O)c2cc(O)c(O)c(O)c2)c1)c1cc(O)c(O)c(OC(=O)c2cc(O)c(O)c(O)c2)c1 [tannic acid]	can bind to DNA													
